Measured values from patent US10287297B2, “Epoxyazulene derivatives useful for treating cancer and diabetes” (The United States of America, as represented by the …, priority 2015, dated 2019).

Assays:
Type in all cases: cell-based
[1] = system: UACC-62; experiment: NCI 60 cell assay, melanoma UACC-62; conditions: Homo sapiens, 48 h; UACC-62 (melanoma); drug exposure two days, SRB endpoint; read-out: GI-50 value
Experimental: (§1) Samples were tested in the standard National Cancer Institute 60-cell line protocol. First, they were tested against all 60 cell lines in a single final concentration of 10 micromolar. Then, they were separately tested in five 10-fold dilutions. The drug exposure was two days, with an SRB endpoint.

[2] = system: UO-31; experiment: NCI 60 cell assay, renal UO-31; conditions: Homo sapiens, 48 h; UO-31 (renal); drug exposure two days, SRB endpoint; read-out: GI-50 value
Experimental: as §1

[3] = system: TK-10; experiment: NCI 60 cell assay, renal TK-10; conditions: Homo sapiens, 48 h; TK-10 (renal); drug exposure two days, SRB endpoint; read-out: GI-50 value
Experimental: as §1

[4] = system: COLO 205; experiment: NCI 60 cell assay, colon COLO 205; conditions: Homo sapiens, 48 h; COLO 205 (colon); drug exposure two days, SRB endpoint; read-out: GI-50 value
Experimental: as §1

[5] = system: PC-3; experiment: NCI 60 cell assay, prostate PC-3; conditions: Homo sapiens, 48 h; PC-3 (prostate); drug exposure two days, SRB endpoint; read-out: GI-50 value
Experimental: as §1

[6] = system: OVCAR-3; experiment: NCI 60 cell assay, ovarian OVCAR-3; conditions: Homo sapiens, 48 h; OVCAR-3 (ovarian); drug exposure two days, SRB endpoint; read-out: GI-50 value
Experimental: as §1

[7] = system: T-47D; experiment: NCI 60 cell assay, breast T-47D; conditions: Homo sapiens, T47D, 48 h; T-47D (breast); drug exposure two days, SRB endpoint; read-out: GI-50 value
Experimental: as §1

[8] = system: MOLT-4; experiment: NCI 60 cell assay, leukemia MOLT-4; conditions: Homo sapiens, 48 h; MOLT-4 (leukemia); drug exposure two days, SRB endpoint; read-out: GI-50 value
Experimental: as §1

[9] = system: NCI-H322M; experiment: NCI 60 cell assay, NSCLC NCI-H322M; conditions: Homo sapiens, 48 h, drug exposure two days, SRB endpoint, read-out: GI-50 value
Experimental: as §1

[10] = system: ACHN; experiment: NCI 60 cell assay, renal ACHN; conditions: Homo sapiens, 48 h, drug exposure two days, SRB endpoint, read-out: GI-50 value
Experimental: as §1

[11] = system: EKVX; experiment: NCI 60 cell assay, NSCLC EKVX; conditions: Homo sapiens, 48 h, drug exposure two days, SRB endpoint, read-out: GI-50 value
Experimental: as §1

[12] = system: DU-145; experiment: NCI 60 cell assay, prostate DU-145; conditions: Homo sapiens, 48 h; DU-145 (prostate); drug exposure two days, SRB endpoint; read-out: GI-50 value
Experimental: as §1

[13] = system: NCI-H460; experiment: NCI 60 cell assay, NSCLC NCI-H460; conditions: Homo sapiens, 48 h, drug exposure two days, SRB endpoint, read-out: GI-50 value
Experimental: as §1

[14] = system: HL-60(TB); experiment: NCI 60 cell assay, leukemia HL-60(TB); conditions: Homo sapiens, 48 h; HL-60(TB) (leukemia); drug exposure two days, SRB endpoint; read-out: GI-50 value
Experimental: as §1

[15] = system: UACC-257; experiment: NCI 60 cell assay, melanoma UACC-257; conditions: Homo sapiens, 48 h; UACC-257 (melanoma); drug exposure two days, SRB endpoint; read-out: GI-50 value
Experimental: as §1

[16] = system: NCI-H23; experiment: NCI 60 cell assay, NSCLC NCI-H23; conditions: Homo sapiens, 48 h, drug exposure two days, SRB endpoint, read-out: GI-50 value
Experimental: as §1

[17] = system: HT29; experiment: NCI 60 cell assay, colon HT29; conditions: Homo sapiens, HT-29, 48 h, drug exposure two days, SRB endpoint, read-out: GI-50 value
Experimental: as §1

[18] = system: NCI/ADR-RES; experiment: NCI 60 cell assay, ovarian NCI/ADR-RES; conditions: Homo sapiens, 48 h, drug exposure two days, SRB endpoint, read-out: GI-50 value
Experimental: as §1

[19] = system: HCT-15; experiment: NCI 60 cell assay, colon HCT-15; conditions: Homo sapiens, 48 h; HCT-15 (colon); drug exposure two days, SRB endpoint; read-out: GI-50 value
Experimental: as §1

[20] = system: SF-268; experiment: NCI 60 cell assay, CNS SF-268; conditions: Homo sapiens, 48 h; SF-268 (CNS); drug exposure two days, SRB endpoint; read-out: GI-50 value
Experimental: as §1

[21] = system: MCF7; experiment: NCI 60 cell assay, breast MCF7; conditions: Homo sapiens, 48 h, drug exposure two days, SRB endpoint, read-out: GI-50 value
Experimental: as §1

[22] = system: 786-0; experiment: NCI 60 cell assay, renal 786-0; conditions: Homo sapiens, 48 h; 786-0 (renal); drug exposure two days, SRB endpoint; read-out: GI-50 value
Experimental: as §1

[23] = system: SK-MEL-2; experiment: NCI 60 cell assay, melanoma SK-MEL-2; conditions: Homo sapiens, 48 h; SK-MEL-2 (melanoma); drug exposure two days, SRB endpoint; read-out: GI-50 value
Experimental: as §1

[24] = system: A549/ATCC; experiment: NCI 60 cell assay, NSCLC A549/ATCC; conditions: Homo sapiens, 48 h, drug exposure two days, SRB endpoint, read-out: GI-50 value
Experimental: as §1

[25] = system: SNB-19; experiment: NCI 60 cell assay, CNS SNB-19; conditions: Homo sapiens, 48 h; SNB-19 (CNS); drug exposure two days, SRB endpoint; read-out: GI-50 value
Experimental: as §1

[26] = system: LOX IMVI; experiment: NCI 60 cell assay, melanoma LOX IMVI; conditions: Homo sapiens, 48 h, drug exposure two days, SRB endpoint, read-out: GI-50 value
Experimental: as §1

[27] = system: HOP-92; experiment: NCI 60 cell assay, NSCLC HOP-92; conditions: Homo sapiens, 48 h; HOP-92 (NSCLC); drug exposure two days, SRB endpoint; read-out: GI-50 value
Experimental: as §1

[28] = system: NCI-H522; experiment: NCI 60 cell assay, NSCLC NCI-H522; conditions: Homo sapiens, 48 h, drug exposure two days, SRB endpoint, read-out: GI-50 value
Experimental: as §1

[29] = system: RPMI-8226; experiment: NCI 60 cell assay, leukemia RPMI-8226; conditions: Homo sapiens, 48 h; RPMI-8226 (leukemia); drug exposure two days, SRB endpoint; read-out: GI-50 value
Experimental: as §1

[30] = system: SF-295; experiment: NCI 60 cell assay, CNS SF-295; conditions: Homo sapiens, 48 h; SF-295 (CNS); drug exposure two days, SRB endpoint; read-out: GI-50 value
Experimental: as §1

[31] = system: CAKI-1; experiment: NCI 60 cell assay, renal CAKI-1; conditions: Homo sapiens, 48 h; CAKI-1 (renal); drug exposure two days, SRB endpoint; read-out: GI-50 value
Experimental: as §1

[32] = system: HCT-116; experiment: NCI 60 cell assay, colon HCT-116; conditions: Homo sapiens, 48 h; HCT-116 (colon); drug exposure two days, SRB endpoint; read-out: GI-50 value
Experimental: as §1

[33] = system: SK-MEL-5; experiment: NCI 60 cell assay, melanoma SK-MEL-5; conditions: Homo sapiens, 48 h; SK-MEL-5 (melanoma); drug exposure two days, SRB endpoint; read-out: GI-50 value
Experimental: as §1

SMILES	GI50 [1] [µM]	GI50 [2] [µM]	GI50 [3] [µM]	GI50 [4] [µM]	GI50 [5] [µM]	GI50 [6] [µM]	GI50 [7] [µM]	GI50 [8] [µM]	GI50 [9] [µM]	GI50 [10] [µM]	GI50 [11] [µM]	GI50 [12] [µM]	GI50 [13] [µM]	GI50 [14] [µM]	GI50 [15] [µM]	GI50 [16] [µM]	GI50 [17] [µM]	GI50 [18] [µM]	GI50 [19] [µM]	GI50 [20] [µM]	further results
CC1=C2[C@@H](CC1)[C@]1(C)O[C@@](C(C)C)(C[C@H]1OC(=O)CO)[C@H]2OC(=O)C1CC1c1ccccc1 (stereo partly drawn) [Compound (Ij), (3aR,4S,5R,7R,8S)-5-(2-hydroxyacetoxy)-7-isopropyl-1,4-dimethyl-2,3,3a,4,5,6,7,8-octahydro-4,7-epoxyazulen-8-yl-2-phenylcyclopropane-1-carboxylate]	12	11	17	17	9	14	4.6	9	19	1.4	13	16	16	14	16	15	13	12	13	14	GI50 [21]: 8.9 µM; GI50 [22]: 15 µM; GI50 [23]: 16 µM; GI50 [24]: 13 µM; GI50 [25]: 17 µM; GI50 [26]: 15 µM; GI50 [27]: 13 µM; GI50 [28]: 13 µM; GI50 [29]: 13 µM; GI50 [30]: 13 µM; GI50 [31]: 12 µM; GI50 [32]: 19 µM; GI50 [33]: 16 µM
CC1=C2[C@@H](CC1)[C@]1(C)O[C@@](C(C)C)(C[C@H]1OC(=O)[C@H](C)O)[C@H]2OC(=O)C=Cc1ccccc1 [(Il), (3aR,4S,5R,7R,8S)-5-(((S)-2-hydroxypropanoyl)oxy)-7-isopropyl-1,4-dimethyl-2,3,3a,4,5,6,7,8-octahydro-4,7-epoxyazulen-8-yl cinnamate]	13	0.71	17	17	4	13	7.2	10	19	0.09	10	17	15	11	15	14	14	0.42	12	1.3	GI50 [21]: 10 µM; GI50 [22]: 13 µM; GI50 [23]: 15 µM; GI50 [24]: 13 µM; GI50 [25]: 18 µM; GI50 [26]: 15 µM; GI50 [27]: 6 µM; GI50 [28]: 13 µM; GI50 [29]: 8 µM; GI50 [30]: 11 µM; GI50 [31]: 7.2 µM; GI50 [32]: 12 µM; GI50 [33]: 13 µM
CC(=O)O[C@@H]1C[C@]2(C(C)C)O[C@@]1(C)[C@@H]1CCC(C)=C1[C@@H]2OC(=O)C=Cc1ccccc1 [(Im), (3aR,4S,5R,7R,8S)-5-acetoxy-7-isopropyl-1,4-dimethyl-2,3,3a,4,5,6,7,8-octahydro-4,7-epoxyazulen-8-yl cinnamate]	26	20	93	32	8	22	20	27	100	4.5	20	71	31	25	28	35	31	23	32	35	GI50 [21]: 19 µM; GI50 [22]: 85 µM; GI50 [23]: 100 µM; GI50 [24]: 47 µM; GI50 [25]: 85 µM; GI50 [26]: 30 µM; GI50 [28]: 21 µM; GI50 [29]: 10 µM; GI50 [30]: 39 µM; GI50 [31]: 13 µM; GI50 [32]: 16 µM; GI50 [33]: 22 µM
